In ChEMBL document CHEMBL2401697, “Indazoles as potential c-Met inhibitors: design, synthesis and molecular docking studies” (Eur J Med Chem, 2013) one finds IC50 data, which are given here for 10 molecules.

This experiment relates to MKN-45. Description: Cytotoxicity against human MKN45 cells after 1 hr by Western blotting analysis. To be noted: MKN-45, 1 h. (In general: In western blotting, separated proteins are transferred to a membrane and probed.)

As a reminder, the IC50 is the concentration that inhibits the measured activity by half. High values mean weaker potency in that assay, low ones greater potency in that assay. With `Cn1cc(-c2ccc3cnn(Cc4ccc5ncccc5c4)c3c2)cn1`, the IC50 was 12.9 µM. Molecule `c1cnc2ccc(Cn3ncc4ccc(-c5cnn(CCOC6CCCCO6)c5)cc43)cc2c1` (stereo not given) showed an IC50 of 14 µM. The figure for `OCCn1cc(-c2ccc3cnn(Cc4ccc5ncccc5c4)c3c2)cn1` is 6.72 µM; for `CC(C)(C)[Si](C)(C)O[C@H]1CC[C@H](n2cc(-c3ccc4cnn(Cc5ccc6ncccc6c5)c4c3)cn2)CC1` it is 11 µM. As for `O[C@H]1CC[C@H](n2cc(-c3ccc4cnn(Cc5ccc6ncccc6c5)c4c3)cn2)CC1`, the half-maximal inhibitory concentration (IC50) stood at 5.45 µM. For `Cn1cc(-c2ccc3cn(Cc4ccc5ncccc5c4)nc3c2)cn1` the value was 106 µM; for `c1cnc2ccc(Cn3cc4ccc(-c5cnn(CCOC6CCCCO6)c5)cc4n3)cc2c1` (stereo not given), 12 µM; for `OCCn1cc(-c2ccc3cn(Cc4ccc5ncccc5c4)nc3c2)cn1`, 110 µM.

Regarding `CC(C)(C)[Si](C)(C)O[C@H]1CC[C@H](n2cc(-c3ccc4cn(Cc5ccc6ncccc6c5)nc4c3)cn2)CC1`, the IC50 is 1300 µM. Compared with the last molecule, the IC50 is about 12-fold higher.

In turn, `O[C@H]1CC[C@H](n2cc(-c3ccc4cn(Cc5ccc6ncccc6c5)nc4c3)cn2)CC1` had an IC50 of 13.4 µM.
